Assay results as given in paper PMC4077696 (PLoS Biology, 2014).
Structures can show the parent of a compound that is named as a salt.

Key:
[1] = test system: P. falciparum protein translation; assay: Global protein synthesis by radiolabeling parasite proteins after drug treatment; assay type: cell-based, Plasmodium falciparum; settings: for Global protein synthesis after 23 h treatment of rings: 15 µM or 50>15 µM, BFA 5 µg/ml; for Global protein synthesis after 5 h treatment of trophozoites: 15 or 50 µM, BFA 10 µg/ml, 15 min labeling
Protocol: To gain further insight into the effects of 916, 024, and 025 on parasites, we assessed global protein synthesis following drug treatment by radiolabeling parasite proteins. Treatment of trophozoites with inhibitor for 5 h prior to radiolabeling had no detectable effect on translation, even at 50 µM concentrations (Figure S4A), indicating the compounds are not direct inhibitors of the translation machinery. We next assessed protein synthesis following 23 h of drug treatment of ring stage parasites (aged 1–3 h old at the initiation of treatment). […] Indeed, Giemsa smears following treatment identified a small proportion of pyknotic parasites in the population (results not shown). […] It is possible that PMV inhibition by 916 treatment has a similar but weaker effect to BFA, in that it causes the accumulation of uncleaved PEXEL precursors in the ER, perturbing ER transport, and that this negatively affects translation by an ER stress response. An alternative possibility is that translation was decreased slightly as a result of parasites dying from 916-mediated impairment of erythrocyte remodeling. Either way, the profile for 916 was different to that seen for 024 and 025, even at 50 µM, indicating the latter analogs likely kill parasites via a different mechanism to 916.
Whole parasite proteins were radiolabeled by culturing magnet-purified trophozoites (wild-type 3D7 or expressing PfEMP3-GFP) in Met/Cys-free medium for 30 min at 37°C before addition of 800 µCi/ml ^35S-Met/Cys (Perkin/Elmer) to the medium for the indicated times. Pellets were snap frozen in ethanol/dry ice bath and stored at −80°C. For radiolabeling in the presence of PMV inhibitor, parasites were treated with 20 µM WEHI-916 for 5 h before labeling commenced. For pulse-chases, proteins were radiolabeled in the presence or absence of inhibitor, as above, before further culture in radiolabel-free, inhibitor-free complete medium for the indicated times at 37°C before snap freezing. Frozen samples were either solubilized in Laemmli's buffer (Figure S4) or solubilized in 1% Triton X-100/PBS with protease inhibitor cocktail (Roche) and PfEMP3-GFP species immunopurified with α-GFP agarose (MBL) at 4°C for 2 h (Figures 3 and S3), and proteins were resolved by SDS-PAGE, visualized by autoradiography (7-d exposures), and quantified using a GS-800 Calibrated Densitometer (Bio-Rad).

PfPMV = PfPMV (Plasmodium falciparum, UniProt Q8I6Z5); assay: PEXEL cleavage assay with immunopurified PfPMVHA and fluorogenic KAHRP PEXEL peptide; assay type: biochemical; settings: IC50 PfPMV, PfPMVHA
PfPMV, sequence (Q8I6Z5 34-590): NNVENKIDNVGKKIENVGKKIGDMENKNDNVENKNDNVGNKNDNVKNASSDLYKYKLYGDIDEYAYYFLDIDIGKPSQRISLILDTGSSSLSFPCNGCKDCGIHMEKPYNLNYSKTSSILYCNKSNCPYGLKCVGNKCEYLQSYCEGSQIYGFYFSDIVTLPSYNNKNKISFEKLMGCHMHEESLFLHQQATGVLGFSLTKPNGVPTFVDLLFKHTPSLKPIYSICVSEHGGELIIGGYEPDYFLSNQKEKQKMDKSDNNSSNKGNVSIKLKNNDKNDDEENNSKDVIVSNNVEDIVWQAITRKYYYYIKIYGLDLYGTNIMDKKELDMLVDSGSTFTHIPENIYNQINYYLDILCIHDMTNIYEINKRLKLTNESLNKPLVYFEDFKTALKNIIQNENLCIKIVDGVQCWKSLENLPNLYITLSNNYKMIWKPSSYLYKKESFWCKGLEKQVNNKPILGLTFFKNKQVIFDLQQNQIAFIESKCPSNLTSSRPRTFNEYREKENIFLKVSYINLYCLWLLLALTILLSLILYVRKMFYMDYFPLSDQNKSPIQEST
Protocol: (§1) To investigate PvPMVHA activity, we affinity purified it, as well as the PfPMVHA control, using anti-HA agarose, as previously described,[18]. […] The proteins were incubated with a fluorogenic peptide of nine amino acids that contained the PEXEL sequence from knob-associated histidine-rich protein (KAHRP), and efficient processing was observed by both enzymes (Figure 1E). Cleavage of KAHRP by PfPMVHA was previously shown to occur after Leu (RTL↓) by mass spectrometry, and this position was also confirmed for PvPMVHA (Figure S2B–E). […] In contrast, no processing was observed when the PEXEL Arg and Leu residues were mutated to Ala (ATAAQ), consistent with the substrate specificity of PfPMV (Figure 1E). To verify that processing was due to HA-tagged PMV rather than other co-precipitated proteases, we expressed in P. falciparum a mutant of PvPMVHA or PfPMVHA [13], where one or both catalytic Asp residues were mutated to Ala (see Figure 1A,B). Following affinity purification, the mutant enzymes were incubated with KAHRP PEXEL peptides, but no processing was observed (Figure 1E; blue, white), confirming that the PEXEL-dependent cleavage activity observed for each protease was attributable only to HA-tagged PMV.
(§2) Each compound was incubated with PfPMVHA in the presence of KAHRP PEXEL peptides.
(§3) PMV-agarose was prepared by adding α-HA-agarose (Sapphire Bioscience) to parasite lysates, prepared by sonication in 1% Triton X-100/PBS, for 1 h before extensive washing in same,[13]. PEXEL cleavage assays (20 µl total volume) consisted of 0.2 µl PMV-agarose in digest buffer (25 mM Tris, 25 mM MES, pH 6.4) with 1.5 µM FRET peptide substrate (DABCYL-[…]-E-EDANS, DABCYL-[…]-E-EDANS, LifeTein; DABCYL-[…]-E-EDANS, DABCYL-[…]-E-EDANS; Mimotopes) ± inhibitor. Samples were excited at 340 nm and fluorescence emission measured at 492 nm using an Envision fluorescence plate reader (Perkin-Elmer) heated to 37°C for 150 min. Samples were shaken between measurements. For determination of the peptide cleavage position by PvPMVHA, the fluorogenic peptide (DABCYL-[…]-E-EDANS), representing the wild-type KAHRP PEXEL sequence, was incubated with and without PvPMVHA at 37°C for 48 h. Products of the incubation were detected by a molecular formula algorithm using an Agilent 6200 TOF/6500 series mass spectrometer.

PvPMV = PvPMV (Plasmodium vivax, UniProt A5K302); assay: PEXEL cleavage assay with immunopurified PvPMVHA and fluorogenic KAHRP PEXEL peptide; assay type: biochemical
PvPMV, sequence (A5K302 35-536): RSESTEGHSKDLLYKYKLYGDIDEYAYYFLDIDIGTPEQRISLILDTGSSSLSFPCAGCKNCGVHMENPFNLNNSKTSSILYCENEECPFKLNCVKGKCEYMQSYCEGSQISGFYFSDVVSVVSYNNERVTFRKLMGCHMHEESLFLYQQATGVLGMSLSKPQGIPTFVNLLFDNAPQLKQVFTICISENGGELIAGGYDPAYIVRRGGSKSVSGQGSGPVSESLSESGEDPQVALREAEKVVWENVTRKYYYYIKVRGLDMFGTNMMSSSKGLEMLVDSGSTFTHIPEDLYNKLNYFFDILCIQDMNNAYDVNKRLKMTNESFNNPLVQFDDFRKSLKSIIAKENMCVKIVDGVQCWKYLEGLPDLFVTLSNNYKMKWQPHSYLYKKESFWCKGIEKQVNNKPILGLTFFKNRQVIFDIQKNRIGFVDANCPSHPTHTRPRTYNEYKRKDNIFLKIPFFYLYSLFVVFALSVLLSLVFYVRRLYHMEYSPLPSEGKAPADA
Protocol: (§5) To investigate PvPMVHA activity, we affinity purified it, as well as the PfPMVHA control, using anti-HA agarose, as previously described [13],[18].
(§6) PMV-agarose was prepared by adding α-HA-agarose (Sapphire Bioscience) to parasite lysates, prepared by sonication in 1% Triton X-100/PBS, for 1 h before extensive washing in same [12],[13]. […] Samples were excited at 340 nm and fluorescence emission measured at 492 nm using an Envision fluorescence plate reader (Perkin-Elmer) heated to 37°C for 150 min. Samples were shaken between measurements.

HEpG2 cells = assay: Toxicity against human HEpG2 cells; assay type: cell-based; settings: toxicity against human cell line
[2] = test system: Human Foreskin Fibroblasts (HFF); assay: Toxicity against Human Foreskin Fibroblasts; assay type: cell-based; settings: Fibroblast
[3] = target: PMV in P. falciparum–infected erythrocytes (Plasmodium falciparum, UniProt Q8I6Z5); assay: PEXEL processing of GFP reporters in parasites by immunoblot; assay type: cell-based; settings: 5 h treatment, immunoblot
PMV in P. falciparum–infected erythrocytes, sequence (Q8I6Z5 whole entry, the tested form may be a part): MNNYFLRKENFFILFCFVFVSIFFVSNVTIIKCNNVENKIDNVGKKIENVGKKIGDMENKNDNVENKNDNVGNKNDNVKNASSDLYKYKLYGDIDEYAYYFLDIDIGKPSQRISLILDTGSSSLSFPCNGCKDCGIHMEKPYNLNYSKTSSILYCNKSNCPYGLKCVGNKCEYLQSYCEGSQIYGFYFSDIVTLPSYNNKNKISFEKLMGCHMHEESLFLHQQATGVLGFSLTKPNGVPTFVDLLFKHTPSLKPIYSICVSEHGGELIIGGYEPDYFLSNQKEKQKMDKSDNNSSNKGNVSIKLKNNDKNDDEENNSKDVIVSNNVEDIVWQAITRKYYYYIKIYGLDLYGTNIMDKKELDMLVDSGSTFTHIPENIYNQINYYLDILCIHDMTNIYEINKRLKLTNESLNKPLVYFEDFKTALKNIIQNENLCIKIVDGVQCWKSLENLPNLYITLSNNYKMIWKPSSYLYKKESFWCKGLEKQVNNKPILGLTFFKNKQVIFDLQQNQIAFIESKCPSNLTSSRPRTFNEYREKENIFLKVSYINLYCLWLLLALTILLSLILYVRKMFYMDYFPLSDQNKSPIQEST
Protocol: To assess whether 916 could inhibit PMV in P. falciparum–infected erythrocytes, parasites expressing the PEXEL protein P. falciparum erythrocyte membrane protein 3 (PfEMP3) fused to green fluorescent protein (GFP) were treated with increasing concentrations of inhibitor, and PEXEL processing was evaluated by immunoblot. […] A GFP-only band, representing degraded chimera in the food vacuole, was also observed at ∼26 kDa (Figure 3A).
(§4) Trophozoites (30–34 h) expressing PfEMP3-GFP, KAHRP-GFP, or SERA5s-GFP were magnet-purified (Miltenyi Biotech), incubated with inhibitors in 400 µl total volume at 37°C for 1–5 h, treated with 0.09% saponin containing inhibitor, and washed pellets were solubilized in Laemmli's buffer, boiled for 3 min, and frozen at −20°C. Proteins were separated by SDS-PAGE, transferred to nitrocellulose and blocked in 10% skim milk/PBS-T, and probed with rat α-HA (Roche 3F10; 1∶1,000), mouse α-GFP (Roche; 1∶1,000), rabbit α-Aldolase (1∶1,000), rabbit α-HSP70 (1∶4,000), rabbit α-PfPMV (1∶1,000), or rabbit α-Hyp8 (1∶500) primary antibodies followed by horseradish peroxidase-conjugated secondary antibodies (Silenius) and detected by enhanced chemiluminescence (Amersham).

signal peptidase = assay: Signal peptide cleavage of SERA5s-GFP in parasites by immunoblot; assay type: cell-based, Plasmodium falciparum
Protocol: This protein contains a signal peptide but lacks a PEXEL and is efficiently secreted to the parasitophorous vacuole (Figure S3B).
as §4

[4] = test system: CC(C)C[C@H](NC(=O)[C@@H](NC(=O)[C@H](CCCNC(=N)N)NC(=O)[C@H](CCCCN)NC(=O)[C@H](CC(N)=O)NC(=O)[C@H](CCCNC(=N)N)NC(=O)c1ccc(N=Nc2ccc(N(C)C)cc2)cc1)[C@@H](C)O)C(=O)N[C@@H](C)C(=O)N[C@@H](CCC(N)=O)C(=O)N[C@@H](CCCCN)C(=O)N[C@@H](CCC(N)=O)C(=O)N[C@@H](CCC(=O)NCCNc1cccc2c(S(=O)(=O)O)cccc12)C(N)=O; assay: PEXEL cleavage assay with immunopurified PfPMVHA and fluorogenic KAHRP PEXEL peptide; assay type: biochemical, Plasmodium falciparum; settings: other: Michaelis–Menten, 2 h; pH 6.4; 37.0 °C
Protocol: as §1, §2, §3

[5] = test system: CC(C)C[C@H](NC(=O)[C@@H](NC(=O)[C@H](CCCNC(=N)N)NC(=O)[C@H](CCCCN)NC(=O)[C@H](CC(N)=O)NC(=O)[C@H](CCCNC(=N)N)NC(=O)c1ccc(N=Nc2ccc(N(C)C)cc2)cc1)[C@@H](C)O)C(=O)N[C@@H](C)C(=O)N[C@@H](CCC(N)=O)C(=O)N[C@@H](CCCCN)C(=O)N[C@@H](CCC(N)=O)C(=O)N[C@@H](CCC(=O)NCCNc1cccc2c(S(=O)(=O)O)cccc12)C(N)=O; assay: PEXEL cleavage assay with immunopurified PvPMVHA and fluorogenic KAHRP PEXEL peptide; assay type: biochemical, Plasmodium vivax; settings: other: Michaelis–Menten, 2 h; pH 6.4; 37.0 °C
Protocol: as §5, §6

Question: What does the source list for `C[C@H]1CCC/C=C/[C@@H]2C[C@H](O)C[C@H]2[C@H](O)/C=C/C(=O)O1` [Brefeldin A, reference compound]?
Answer: Global protein synthesis after 23 h treatment of rings [1]: severely impaired translation; Global protein synthesis after 23 h treatment of rings ([1]; listed as BFA): severely reduced translation; Global protein synthesis after 5 h treatment of trophozoites [1]: no defect in global protein synthesis

Question: For `CC(C)C[C@H](NC(=O)[C@@H](NC(=O)[C@H](CCCCN)NS(=O)(=O)Cc1ccccc1)C(C)C)[C@@H](O)CC(=O)NCCc1ccccc1` [compound 024, PhCH2SO2-Lys(NH2)-Val-Sta-NH(CH2)2Ph .TFA], which IC50 (PfPMV) is on record?
Answer: > 100 µM

Question: And the “Activity against PvPMVHA, in words” value (PvPMV)?
Answer: weak activity

Question: What about the IC50 (PvPMV) of the same compound?
Answer: > 100 µM

Question: What about the IC50 (HEpG2 cells) of the same compound?
Answer: > 100 µM

Question: And the IC50 [2]?
Answer: > 100 µM

Question: And the “PEXEL processing of KAHRP-GFP in parasites, in words” value ([3]; 20 and 50 µM)?
Answer: no effect

Question: What about the “PEXEL processing of PfEMP3-GFP in parasites, in words” value ([3]; up to 50 µM) of the same compound?
Answer: no effect

Question: What about the “Signal peptide cleavage of SERA5s-GFP, in words” value (signal peptidase; 20 µM for 5 h) of the same compound?
Answer: no defect

Question: And the “Effect on PMV or signal peptidase activity in parasites, in words” value (signal peptidase; concentrations up to 50 µM)?
Answer: no affect

Question: What about the “Global protein synthesis after 23 h treatment of rings” value [1] of the same compound?
Answer: no defect in global protein synthesis

Question: And the “Global protein synthesis after 5 h treatment of trophozoites” value [1]?
Answer: no defect in global protein synthesis

Question: With PfPMV (Plasmodium falciparum 3D7) as the compound, how does the Km [4] read?
Answer: 11.7 (±1.8) µM

Question: Which Km [5] does the source give for PvPMV (Plasmodium vivax Sal-1) here?
Answer: 9.7 (±3.0) µM
